# Results published in US11911383B2, “Oral solution formulation” (Pfizer Inc., priority 2018, dated 2024).
# Like-named read-outs stand apart in the source and are kept apart here.
# Key:
# [1] = Solubility of palbociclib (free base) in various aqueous buffers, with total degradation by HPLC; type: physicochemical; settings: for solubility at 28 h: aqueous buffer solution, 25 °C, thermodynamic from solid
# Description: The solubility of palbociclib (free base) was assessed in various aqueous buffer solutions and mixtures thereof. The buffers were prepared at concentrations ranging from 0.01 M to 0.2 M and at pH values ranging from 2.0 to 8.4. Samples were prepared by weighing and transferring approximately 200 mg of palbociclib to 3-4 mL of the buffer. The solutions were vortexed and placed in a temperature cycle chamber for 8 hours at 25° C., followed by 12 hours at 40° C., then 8 hours at 25° C. The resulting solutions were then analyzed by HPLC to determine the solubility (mg/mL) of palbociclib in the buffer. […] NT=Not tested.
# [2] = Effect of pH on the oral aqueous solution (degradation, precipitation); type: physicochemical; settings: pH values above about 4.3
# Description: In some embodiments, the oral aqueous solution has a pH of from about 3.0 to about 4.5. In some embodiments, the oral aqueous solution has a pH of from about 3.5 to about 4.3. In frequent embodiments, the oral aqueous solution has a pH of from about 3.6 to about 4.0. In some such embodiments, the oral aqueous solution has a pH of about 3.8.
# [3] = Sample P: 0.032M Malic Acid, pH NT
# [4] = Sample Q: 0.02M Malic Acid, pH NT
# [5] = Sample R: 0.01M Malic Acid, pH NT
# [6] = aqueous buffer systems of lactic acid and malic acid
smiles,measurement,setting,value
"CC(=O)c1c(C)c2cnc(Nc3ccc(N4CCNCC4)cn3)nc2n(C2CCCC2)c1=O [palbociclib, 6-acetyl-8-cyclopentyl-5-methyl-2-(5-piperazin-1-yl-pyridin-2-ylamino)-8H-pyrido[2,3-d]pyrimidin-7-one]",Total Degradation,"[1]; Sample A: 0.2M Citric Acid, pH 2.02, new HPLC peaks greater than 0.05%",0.52%
same,Total Degradation,"[1]; Sample B: 0.2M Malic Acid, pH 2.00",0.20%
same,Total Degradation,"[1]; Sample C: 0.2M DL Lactic Acid, pH 2.07",0%
same,Total Degradation,"[1]; Sample D: 0.2M Succinic acid, pH 2.42",0.66%
same,Total Degradation,"[1]; Sample E: 0.2M Sodium succinate, pH 8.38",0%
same,Total Degradation,"[1]; Sample F: 0.2M Sodium dihydrogen phosphate dihydrate, pH 2.01",1.27%
same,Total Degradation,"[1]; Sample G: 9.5 mL D + 0.5 mL E, pH 3.15",0.29%
same,Total Degradation,"[1]; Sample H: 9 mL D + 1 mL E, pH 3.45",3.03%
same,Total Degradation,"[1]; Sample I: 8 mL D + 2 mL E, pH 3.93",3.43%
same,Total Degradation,"[1]; Sample J: 5 mL D + 5 mL E, pH 4.62",1.31%
same,Total Degradation,"[1]; Sample K: 5 mL D + 10 mL E, pH 4.98",1.08%
same,Total Degradation,"[1]; Sample L: 5 mL D + 15 mL E, pH 5.25",1.46%
same,Total Degradation,"[1]; Sample M: 0.1M DL Lactic Acid, pH 2.31",0.00%
same,Total Degradation,"[1]; Sample N: 0.05M DL Lactic Acid, pH 2.46",0.00%
same,Total Degradation,"[1]; Sample O: 0.01M DL Lactic Acid, pH 2.83",0.19%
same,Solubility,[1]; [3],530 µg/mL
same,Total Degradation,[1]; [3],1.66%
same,Solubility,[1]; [4],600 µg/mL
same,Total Degradation,[1]; [4],1.62%
same,Solubility,[1]; [5],600 µg/mL
same,Total Degradation,[1]; [5],1.63%
same,solubility at 28 h,"[1]; pH 2, aqueous buffer, Sample B: 0.2M Malic Acid, pH 2.00, read-out: Solubility",15700 µg/mL
same,solubility at 28 h,"[1]; pH 2.01, aqueous buffer, Sample F: 0.2M Sodium dihydrogen phosphate dihydrate, pH 2.01, read-out: Solubility",650 µg/mL
same,solubility at 28 h,"[1]; pH 2.02, aqueous buffer, Sample A: 0.2M Citric Acid, pH 2.02, temperature cycle 25/40/25° C., read-out: Solubility",4000 µg/mL
same,solubility at 28 h,"[1]; pH 2.07, aqueous buffer, 0.2M DL lactic acid buffer, read-out: Amount dissolved with solution still clear (saturated solubility not yet reached)",> 45700 µg/mL
same,solubility at 28 h,"[1]; pH 2.07, aqueous buffer, Sample C: 0.2M DL Lactic Acid, pH 2.07, read-out: Solubility",45700 µg/mL
same,solubility at 28 h,"[1]; pH 2.31, aqueous buffer, Sample M: 0.1M DL Lactic Acid, pH 2.31, read-out: Solubility",36300 µg/mL
same,solubility at 28 h,"[1]; pH 2.42, aqueous buffer, Sample D: 0.2M Succinic acid, pH 2.42, read-out: Solubility",1100 µg/mL
same,solubility at 28 h,"[1]; pH 2.46, aqueous buffer, Sample N: 0.05M DL Lactic Acid, pH 2.46, read-out: Solubility",16200 µg/mL
same,solubility at 28 h,"[1]; pH 2.83, aqueous buffer, Sample O: 0.01M DL Lactic Acid, pH 2.83, read-out: Solubility",3800 µg/mL
same,solubility at 28 h,"[1]; pH 3.15, aqueous buffer, Sample G: 9.5 mL D + 0.5 mL E (succinic acid/sodium succinate), pH 3.15, read-out: Solubility",1700 µg/mL
same,solubility at 28 h,"[1]; pH 3.45, aqueous buffer, Sample H: 9 mL D + 1 mL E, pH 3.45, read-out: Solubility",340 µg/mL
same,solubility at 28 h,"[1]; pH 3.93, aqueous buffer, Sample I: 8 mL D + 2 mL E, pH 3.93, read-out: Solubility",67 µg/mL
same,solubility at 28 h,"[1]; pH 4.62, aqueous buffer, Sample J: 5 mL D + 5 mL E, pH 4.62, read-out: Solubility",68 µg/mL
same,solubility at 28 h,"[1]; pH 4.98, aqueous buffer, Sample K: 5 mL D + 10 mL E, pH 4.98, read-out: Solubility",55 µg/mL
same,solubility at 28 h,"[1]; pH 5.25, aqueous buffer, Sample L: 5 mL D + 15 mL E, pH 5.25, read-out: Solubility",91 µg/mL
same,solubility at 28 h,"[1]; pH 8.38, aqueous buffer, Sample E: 0.2M Sodium succinate, pH 8.38, read-out: Solubility",4 µg/mL
same,Degradation (in words),[1]; [6],minimal degradation
same,Solubility (in words),[1]; [6],significantly enhanced solubility
same,Precipitation of the API,[2],Some precipitation
